Broadly, the MIC50 is the lowest concentration that inhibits either 50% of growth or 50% of the strains tested, depending on the study. Higher therefore signals lower susceptibility. Broadly, the MIC90 is an inhibitory concentration at the 90% level, which refers to growth in some studies and to a panel of isolates in others. A high value points to weaker potency. As a reminder, the MIC is the lowest concentration found to suppress growth. A higher MIC goes with weaker potency.

SMILES strings stand for the structures. In brackets after ≈: the same amount, converted by molar mass.

This is an account of results in ChEMBL document CHEMBL1255371, “Clonal spread of highly beta-lactam-resistant Streptococcus pneumoniae isolates in Taiwan” (2008).

Format in all cases: functional
Experiment [1] relates to Streptococcus pneumoniae. The experiment can be described thus: Antimicrobial activity against Streptococcus pneumoniae isolated from meningitis patient assessed as percent susceptible isolates by CLSI method.
The subject of experiment [2] is Streptococcus pneumoniae. The experiment is described as follows: Antimicrobial activity against beta-lactam resistant Streptococcus pneumoniae clinical isolate by broth dilution method. (In general: In broth dilution the organism is exposed to a series of concentrations in liquid medium.)
The subject of experiment [3] is Streptococcus pneumoniae. The experiment is described as follows: Antimicrobial activity against Streptococcus pneumoniae isolated from meningitis patient assessed as percent resistant isolates by CLSI method.
Experiment [4] relates to Streptococcus pneumoniae. The experiment can be described thus: Antimicrobial activity against Streptococcus pneumoniae in non-meningitis patients by broth dilution method.
Experiment [5] relates to Streptococcus pneumoniae. The experiment can be described thus: Antimicrobial activity against Streptococcus pneumoniae in meningitis patients by broth dilution method.
Experiment [6] relates to Streptococcus pneumoniae. The experiment can be described thus: Antimicrobial activity against Streptococcus pneumoniae isolated from patient with bacterial infection by broth dilution method.
The test system of experiment [7] is Streptococcus pneumoniae. The experiment is described as follows: Antimicrobial activity against Streptococcus pneumoniae isolated from non-meningitis patient assessed as percent resistant isolates by CLSI method.
The test system of experiment [8] is Streptococcus pneumoniae. The experiment can be described thus: Antimicrobial activity against Streptococcus pneumoniae isolated from non-meningitis patient assessed as percent susceptible isolates by CLSI method.
In experiment [9] the test system is Streptococcus pneumoniae. The experiment is described as follows: Antimicrobial activity against Streptococcus pneumoniae isolated from cerebrospinal fluid of patient with bacterial infection by broth dilution method.

Turning to `CN[C@H](CC(C)C)C(=O)N[C@H]1C(=O)N[C@@H](CC(N)=O)C(=O)N[C@H]2C(=O)N[C@H]3C(=O)N[C@H](C(=O)N[C@H](C(=O)O)c4cc(O)cc(O)c4-c4cc3ccc4O)[C@H](O)c3ccc(c(Cl)c3)Oc3cc2cc(c3O[C@@H]2O[C@H](CO)[C@@H](O)[C@H](O)[C@H]2O[C@H]2C[C@](C)(N)[C@H](O)[C@H](C)O2)Oc2ccc(cc2Cl)[C@H]1O` [VANCOMYCIN], the Activity with Streptococcus pneumoniae [1] was determined as 100%. In the experiment on Streptococcus pneumoniae [2], this compound showed an MIC50 of 0.25 µg/mL (≈ 0.173 µM) and an MIC90 of 0.5 µg/mL (≈ 0.345 µM). Besides, the Activity with Streptococcus pneumoniae [3] was 0%.

In the case of `CC[C@H]1OC(=O)[C@H](C)[C@@H](O[C@H]2C[C@@](C)(OC)[C@@H](O)[C@H](C)O2)[C@H](C)[C@@H](O[C@@H]2O[C@H](C)C[C@H](N(C)C)[C@H]2O)[C@](C)(O)C[C@@H](C)C(=O)[C@H](C)[C@@H](O)[C@]1(C)O` [ERYTHROMYCIN], in the experiment on Streptococcus pneumoniae [1], the Activity was determined as 6.9%. In the experiment with Streptococcus pneumoniae [2], the MIC50 was above 32 µg/mL and the MIC90 was above 32 µg/mL. The Activity in the experiment on Streptococcus pneumoniae [3] was determined as 90.9%.

For the compound `C[C@H]1COc2c(N3CCN(C)CC3)c(F)cc3c(=O)c(C(=O)O)cn1c23.C[C@H]1COc2c(N3CCN(C)CC3)c(F)cc3c(=O)c(C(=O)O)cn1c23.O` [LEVOFLOXACIN], the Activity in the experiment with Streptococcus pneumoniae [1] came to 98.1%. In the experiment on Streptococcus pneumoniae [2], the MIC50 is 1 µg/mL and the MIC90 came out at 1 µg/mL. The Activity in the experiment with Streptococcus pneumoniae [3] amounted to 1.9%.

As for `CO/N=C1\CN(c2nc3c(cc2F)c(=O)c(C(=O)O)cn3C2CC2)CC1CN` (stereo unspecified) [GEMIFLOXACIN], the Activity in the experiment with Streptococcus pneumoniae [1] is reported as 98.9%. Besides, in the experiment with Streptococcus pneumoniae [2], the minimum inhibitory concentration (MIC) is at most 0.03 µg/mL, the MIC50 was at most 0.03 µg/mL and the MIC90 was at most 0.03 µg/mL. Further, the Activity with Streptococcus pneumoniae [3] was found to be 1.1%.

In the experiment with Streptococcus pneumoniae [2], `Nc1nc(/C(=N/O)C(=O)N[C@@H]2C(=O)N3C(C(=O)O)=C(/C=C4\CCN([C@@H]5CCNC5)C4=O)CS[C@H]23)ns1` [CEFTOBIPROLE] had an MIC50 of 0.25 µg/mL (≈ 0.468 µM) and an MIC90 of 0.5 µg/mL (≈ 0.935 µM).

In the experiment on Streptococcus pneumoniae [2], `CCCCCCCCCC(=O)N[C@@H](Cc1c[nH]c2ccccc12)C(=O)N[C@H](CC(N)=O)C(=O)N[C@@H](CC(=O)O)C(=O)N[C@@H]1C(=O)NCC(=O)N[C@@H](CCCN)C(=O)N[C@@H](CC(=O)O)C(=O)N[C@H](C)C(=O)N[C@@H](CC(=O)O)C(=O)NCC(=O)N[C@H](CO)C(=O)N[C@@H]([C@H](C)CC(=O)O)C(=O)N[C@@H](CC(=O)c2ccccc2N)C(=O)O[C@@H]1C` yielded an MIC50 of 0.06 µg/mL (≈ 0.037 µM) and an MIC90 of 0.06 µg/mL (≈ 0.037 µM).

`CN(C)c1cc(NC(=O)CNC(C)(C)C)c(O)c2c1C[C@H]1C[C@H]3[C@H](N(C)C)C(O)=C(C(N)=O)C(=O)[C@@]3(O)C(O)=C1C2=O` [TIGECYCLINE]: in the experiment on Streptococcus pneumoniae [2], the MIC was at most 0.015 µg/mL, the MIC50 is at most 0.015 µg/mL and the MIC90 was determined as 0.03 µg/mL (≈ 0.0512 µM).

For `CC1(C)S[C@@H]2[C@H](NC(=O)Cc3ccccc3)C(=O)N2[C@H]1C(=O)O` [PENICILLIN G], the figures for the MIC in the experiment on Streptococcus pneumoniae [4], against Streptococcus pneumoniae [5] and against Streptococcus pneumoniae [6] were at least 4 µg/mL, at least 0.1 µg/mL and at least 0.1 µg/mL, respectively. Besides, the Activity was determined as 16.8% in the experiment with Streptococcus pneumoniae [1] and 44.5% in the experiment on Streptococcus pneumoniae [3]. The same compound displayed an MIC50 with Streptococcus pneumoniae [2] of 1 µg/mL (≈ 2.99 µM). In addition, in the experiment with Streptococcus pneumoniae [2], the MIC90 worked out at 2 µg/mL (≈ 5.98 µM).

Take `CO/N=C(\C(=O)N[C@@H]1C(=O)N2C(C(=O)O)=C(COC(C)=O)CS[C@H]12)c1csc(N)n1` [CEFOTAXIME]: the MIC was below 2 µg/mL against Streptococcus pneumoniae [4], 1 µg/mL (≈ 2.2 µM) in the experiment on Streptococcus pneumoniae [5], 1 µg/mL (≈ 2.2 µM) in the experiment with Streptococcus pneumoniae [9] and at least 2 µg/mL with Streptococcus pneumoniae [6]. Moreover, the Activity is given as 58.5% with Streptococcus pneumoniae [1], 1.4% in the experiment on Streptococcus pneumoniae [7], 93.1% in the experiment on Streptococcus pneumoniae [8] and 6.9% in the experiment on Streptococcus pneumoniae [3]. In the experiment with Streptococcus pneumoniae [2], this compound returned an MIC50 of 0.5 µg/mL (≈ 1.1 µM). The same compound yielded an MIC90 with Streptococcus pneumoniae [2] of 1 µg/mL (≈ 2.2 µM).
